Results published in patent US12497364B2, “Compound for the determination of the protein FKBP12 and a sensor unit comprising it” (UNIVERSITA DEGLI STUDI DI FIRENZE, priority 2019, dated 2025).

Key:
FKBP12 [1] = biological target: T1, FKBP12 (Homo sapiens, UniProt P62942); assay: QCM microgravimetric measurement of FKBP12 bound to the self-assembled monolayer (SAM), Langmuir fit; format: binding; details: for Binding of FKBP12 in solution to the SAM (FIG. 5): mass of FKBP12 bound versus FKBP12 concentration in solution
T1 construct: purchased Interuniversity Magnetic Resonance Consortium of Paramagnetic Metalloproteins, CIRMMP (Florence, Italy); host or cells: Escherichia coli
Procedure: FKBP12 expressed in Escherichia coli, molecular weight 11900, purity >95% was supplied by the Interuniversity Magnetic Resonance Consortium of Paramagnetic Metalloproteins, CIRMMP (Florence, Italy). The purity of FKBP12 was determined by SDS electrophoresis. K2HPO4 and KH2PO4 for the preparation of the phosphate buffer was obtained from Sigma-Aldrich (Italy). All measurements were made using ultrapure water (resistivity=18 MΩ cm, pH=5.6 at 20° C.) obtained with a Milli-RO equipment coupled with a Milli-Q set up (Millipore, Italy).
(§1) The concentration of the stock solutions of FKBP12 in PBS buffer (pH 7.4, 0.15 M NaCl) was checked by UV/Vis measurements using ε280=9970 M^−1 cm^−1. The stock solution of FKBP12 was diluted to reach the concentrations used for the calibration straight line.
(§2) The microgravimetric analyses were carried out with a Quartz-Crystal microbalance (QCM-Z 500 from KSV-Finland). This instrumentation is equipped with a Peltier element for controlling the temperature inside the measurement chamber. All experiments were performed at a temperature of T=20.0±0.1° C.
The frequency and dissipation data for all recorded harmonics were processed with the QCMBrowse software which directly provides adsorbed mass in nanograms/cm^2, thickness of the monolayer in nanometers and viscoelastic parameters of the system.
The gold-coated piezoelectric quartz support covered with the SAMs as described above in Example 2, was brought into contact with solutions of increasing concentration of the FKBP12 protein and the concentration of the protein bound to the self-assembled monolayer SAM at saturation was recorded with gravimetric measurements.
Two different miniaturized versions of an open chamber QCM quartz crystal microbalance (from QCM KSV, Finland and an OpenQCM, Italy modified by the inventors) were also used as a device, allowing the use of small measurement volumes (less than 100 microliters) of the solution to analyse.
Again with reference to FIG. 5, it can be observed that in all the examined cases there is a saturation trend of the curves, which flatten once the sites available for binding the FKBP protein are exhausted. Considering the structure reached at this concentration as the final equilibrium structure, the relative structural parameters reported in the following Table 2 were calculated.
The trend shown in FIG. 5 can be rationalized through the Langmuir binding and/or adsorption equation: Δm/A=(Δm/A)sat[C]/[C]+kd
The application of this model to the data obtained from the microgravimetric measurements allowed to obtain a detailed picture of the interaction mechanism and the energetics involved, in particular we obtained the maximum surface density of FKBP12 (to saturation), the dissociation constant Kd for FKBP12/receptor in the nanosensor and free energy of physi-sorption. The values obtained are shown in Table 3 below, for all the types of SAMs examined.

FKBP12 [2] = biological target: T1, FKBP12; assay: Calibration straight line for FKBP12 on the SAM nanosensor (QCM)
Procedure: as §1, §2
From the analysis of the calibration straight lines obtained for the systems examined, the linearity intervals and the experimental limit of detection (LOD) were obtained (wherein LOD means the smallest amount of measurable analyte with acceptable accuracy and precision) for each sensor tested, considering that the maximum sensitivity to the mass in the cell for liquids of the instrumentation used is 0.5 ng/cm^2. This limit may vary depending on the analytical instrumentation adopted for the same SAM used.

FKBP12 [3] = biological target: T1, FKBP12; assay: Duration of operation of the SAM and its reconditioning (QCM); details: reconditioning with imidazole or with ethanol
Procedure: The microgravimetric measurements described above were repeated on freshly prepared SAMs or aged up to 4 months, finding the same results, at least for SAMs stored in closed containers saturated with N2.
Measurements were also carried out on SAMs already used for a measurement, after reconditioning with imidazole or with ethanol. […] The same result was achieved by leaving in incubation the SAM in solution of the reconditioning solvent.

T1 sequence (P62942 whole entry): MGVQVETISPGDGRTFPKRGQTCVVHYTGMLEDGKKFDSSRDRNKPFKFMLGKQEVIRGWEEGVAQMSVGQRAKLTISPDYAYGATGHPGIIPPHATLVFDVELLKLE

| Structure (SMILES) | Binding of FKBP12 in solution to the SAM (FIG. 5) (FKBP12 [1]) | (M/Area)max (Langmuir FIT), maximum surface density of FKBP12 at saturation (FKBP12 [1]; Table 2, SAM on gold-coated quartz crystal) [ng/cm^2] | Kd (FKBP12 [1]; Table 2, SAM on gold-coated quartz crystal, T=20.0 °C, pseudo-Kd for mixed systems) [nM] | (Maa/Area)max (Langmuir FIT) (FKBP12 [1]; Table 3) [ng/cm^2] | Area available for FKBP12 to saturation (FKBP12 [1]; Table 3, experimental data, at saturation) [Å^2] | Linear interval of the response to FKBP12 (FKBP12 [2]; FKBP12 concentration in solution, QCM mass sensitivity 0.5 ng/cm^2) [pM] | Limit of Detection (LOD) (FKBP12 [2]; LOD = 3x (y-intercept standard deviation)/slope of the calibration curve) [pM] | QCM frequency before addition of FKBP12 versus after rinsing with the reconditioning solvent (FKBP12 [3]) |
| --- | --- | --- | --- | --- | --- | --- | --- | --- |
| CCCCCCCCCCCCS [C12SH, reference compound] | no interaction with the FKBP protein in solution is observed |  |  |  |  |  |  |  |
| O=C(CCCCCCCCCCS)Oc1ccc(C(=O)C(=O)N2CCCC[C@H]2C(=O)NCCCc2ccccc2)cc1 [GPS-SH1, (S)-4-(2-oxo-2-(2-((3-phenylpropyl)carbamoyl)piperidin-1-yl)acetyl)phenyl 11-mercaptoundecanoate] | binds | 123 | 0.75 | 123 | 1910 | 10 to 800 | 8.0 | identical |
